Key:
rat DRG neurons = experiment: Current clamp of acidosis-evoked action potentials (spikes) in rat DRG neurons; format: cell-based; conditions: PAR2-AP 10^−5 M for 1 min; pH 6.6 for 5 s; capsazepine 10 μM; control 3.5 ± 0.6; P < 0.05; n = 9
Excerpt: The experimental protocol was approved by the animal research ethics committee of Hubei University of Science and Technology (No. 2016–67). All procedures conformed to international guidelines on the ethical use of animals, and every effort was made to minimize the number of animals used and their sufferings. Five- to 6-week-old Sprague–Dawley male rats were anesthetized with 7% chloral hydrate and then decapitated. The DRGs were taken out and transferred immediately into Dulbecco’s modified Eagle’s medium (DMEM, Sigma) at pH 7.4. After the removal of the surrounding connective tissues, the DRGs were minced with fine spring scissors and the ganglion fragments were placed in a flask containing 5 ml of DMEM in which trypsin (type II-S, Sigma) 0.5 mg/ml, collagenase (type I-A, Sigma) 1.0 mg/ml, and DNase (type IV, Sigma) 0.1 mg/ml had been dissolved and incubated at 35 °C in a shaking water bath for 25–30 min. Soybean trypsin inhibitor (type II-S, Sigma) 1.25 mg/ml was then added to stop trypsin digestion. The incubating solution was then replaced by external solution. […]
(§1) Drugs purchased from Sigma and used in the experiments include hydrochloric acid, 2-furoyl-LIGRLO-NH2 (a PAR2-activating peptide (PAR2-AP)), trypsin, FSLLRY-NH2, APETx2, and capsazepine. […] The application pipette tips were positioned ∼30 μm away from the recorded neurons. […]

[1] = system: ASIC3 currents in CHO cells expressing alone ASIC3, but not expressing PAR2; experiment: Whole-cell patch clamp, CHO cells expressing ASIC3 alone (no PAR2); format: cell-based, Chinese hamster; conditions: 10^−5 M; P > 0.1; n = 10
Procedure: (§2) ASIC3, ASIC1a, ASIC1b, ASIC2b, and PAR2 complementary DNAs (cDNAs) were used for heterologous expression in CHO cells as described previously (Wang et al., 2013). In brief, CHO cells were cultured at 37 °C in a humidified atmosphere of 5% CO2 and […] and passaged twice a week. Transient transfection of CHO cells was performed using HilyMax liposome transfection reagent (Dojindo Laboratories). CHO cells were maintained in F-12 Nutrient Mixture (added 1.176 g of NaHCO3/L medium) supplemented with 10% fetal bovine serum and 1% gluta-MAXTM-1 (100×; Invitrogen). When ASIC3 and PAR2 cDNAs were co-transfected, the ratio was kept at 1:1. All plasmids used contained, in addition to the desired ASIC3 cDNA, the coding sequence for enhanced green fluorescent protein to aid identification of transfected cells. Electrophysiological measurements were performed 24–48 h after transfection.
(§3) Whole-cell patch clamp and voltage clamp recordings were carried out at room temperature (22–25 °C) using a MultiClamp-700B amplifier and Digidata-1440A A/D converter (Axon Instruments, CA, USA). […]
as §1

[2] = system: heteromeric ASIC1b+3 channels expressed with PAR2 in CHO cells; experiment: Whole-cell patch clamp, heteromeric ASIC1b+3 channels expressed with PAR2 in CHO cells; format: cell-based, Chinese hamster; conditions: PAR2-AP 10^−5 M for 1 min; I pH 6.6; ASIC3:other subunit 1:3; n = 8
Procedure: as §2, §3, §1

[3] = system: heteromeric ASIC2b+3 channels expressed with PAR2 in CHO cells; experiment: Whole-cell patch clamp, heteromeric ASIC2b+3 channels expressed with PAR2 in CHO cells; format: cell-based, Chinese hamster; conditions: PAR2-AP 10^−5 M for 1 min; I pH 6.6; ASIC3:other subunit 1:3; n = 8
Procedure: as §2, §3, §1

[4] = system: ASIC3-like currents in rat DRG neurons; experiment: Voltage clamp of proton-evoked ASIC3-like currents in acutely isolated rat DRG neurons; format: cell-based; conditions: 10^−5 M for 1 min; capsazepine 10 μM present; −60 mV; n = 9
Excerpt: The experimental protocol was approved by the animal research ethics committee of Hubei University of Science and Technology (No. 2016–67). All procedures conformed to international guidelines on the ethical use of animals, and every effort was made to minimize the number of animals used and their sufferings. Five- to 6-week-old Sprague–Dawley male rats were anesthetized with 7% chloral hydrate and then decapitated. The DRGs were taken out and transferred immediately into Dulbecco’s modified Eagle’s medium (DMEM, Sigma) at pH 7.4. After the removal of the surrounding connective tissues, the DRGs were minced with fine spring scissors and the ganglion fragments were placed in a flask containing 5 ml of DMEM in which trypsin (type II-S, Sigma) 0.5 mg/ml, collagenase (type I-A, Sigma) 1.0 mg/ml, and DNase (type IV, Sigma) 0.1 mg/ml had been dissolved and incubated at 35 °C in a shaking water bath for 25–30 min. Soybean trypsin inhibitor (type II-S, Sigma) 1.25 mg/ml was then added to stop trypsin digestion. The incubating solution was then replaced by external solution. Dissociated neurons were placed into a 35-mm Petri dish and kept for at least 1 h in normal external solution before the start of electrophysiological experiments. After plating of the DRG neurons, the neurons were used for experiments within 24 h. The neurons selected for electrophysiological experiment were 15–35 μm in diameter.
Whole-cell patch clamp and voltage clamp recordings were carried out at room temperature (22–25 °C) using a MultiClamp-700B amplifier and Digidata-1440A A/D converter (Axon Instruments, CA, USA). Recording pipettes were pulled using a Sutter P-97 puller (Sutter Instruments, CA, USA). The micropipettes were filled with internal solution containing (mM) KCl 140, MgCl2 2.5, HEPES 10, EGTA 11, and ATP 5; its pH was adjusted to 7.2 with KOH, and osmolarity was adjusted to 310 mOsm/L with sucrose. Cells were bathed in an external solution containing (mM) NaCl 150, KCl 5, CaCl2 2.5, MgCl2 2, HEPES 10, D-glucose 10; its osmolarity was adjusted to 330 mOsm/L with sucrose and its pH to 7.4. The resistance of the recording pipette was in the range of 3–6 MΩ. A small patch of membrane underneath the tip of the pipette was aspirated to form a giga seal, and then, a negative pressure was applied to rupture it, thus establishing a whole-cell configuration. The series resistance was compensated for by 70–80%. The adjustment of capacitance compensation was also done before recording the membrane currents. […]
as §1

2-furoyl-LIGRLO-NH2 [PAR2-AP]
mean number of spikes induced by acidosis after PAR2-AP pretreatment (rat DRG neurons): 6.3 ± 0.9
effect on I pH 6.6 in ASIC3-transfected CHO cells without PAR2 [1]: Neither PAR2-AP nor trypsin had an effect
increase of peak current of heteromeric ASIC1b+3 channels [2]: 55.2 ± 5.9%
increase of peak current of heteromeric ASIC2b+3 channels [3]: 68.1 ± 7.3%
increase of peak amplitude of I pH 6.6 in DRG neurons after agonist pretreatment [4]: 57.1 ± 9.8%
